Data reported in US20100210584A1, “LIQUID OR PASTE COMPOSITIONS INTENDED TO PROVIDE ELEMENTS ESSENTIAL FOR THE SYNTHESIS AND FORMATION OF PROTEOGLYCANS, IN PARTICULAR, FOR THE TREATMENT OF CARTILAGE DEGRADATION” (priority 2007, published 2010).
Like-named read-outs stand apart in the source and are kept apart here.

What was measured:
[1] = humans, dependent on the molecular weight; cited from earlier work
[2] = 800 to 1200 mg/day; cited from earlier work
[3] = animals, labeled chondroitin; cited from earlier work
[4] = cited from earlier work
[5] = Coloring (Maillard reaction) of aqueous solutions on storage; assay type: physicochemical; conditions: 6.0% in water by total weight of the composition
Method: At the chemical level, glucosamine, which can be of either natural or synthetic origin, is a glucose molecule to which an amino grouping has bonded. Consequently, in water without the addition of sugar, this molecule automatically leads to the appearance of a brown color of the solution by the condensation reaction of the different glucosamine molecules together. This appears clearly in an aqueous 7.5% glucosamine solution. After 8 months at 40° C., the solution takes on a caramel hue.
Three solutions have been produced, each containing 7.5% glucosamine by weight with respect to the total weight of the composition and 6.0% chondroitin sulfate by weight with respect to the total weight of the composition. In two solutions, anhydrous citric acid was added before the introduction of chondroitin sulfate. One of the solutions was heated at 100° C. for 10 minutes.

arthritic knee joint = conditions: three to five injections at one-week intervals, on average; cited from earlier work
[6] = taken orally; cited from earlier work
[7] = beyond a pH of 7.0; cited from earlier work
[8] = cited from earlier work; remark: listed apart in the source
[9] = placebo-controlled; cited from earlier work

For chondroitin sulfate, the absorption [1] is listed as “around 15%”, the Lequesne index [2] is listed as “improves the Lequesne index” and the articular joint space [2] is listed as “preserves the articular joint space”. For the same compound, the mobility [2] was “improves mobility”, the pain [2] was “reduces pain” and the absorption [3] was “more than 66%”. For the same compound, the solubility in alcohols ([4]; ethanol, propanol-1 and isopropanol) was “insoluble” and the “intensity of coloring compared with a pure 7.5% glucosamine solution” value [5] was “ten times less intense”.
For hyaluronic acid, the duration of efficacy (arthritic knee joint) is given as 8-9 months.
In the case of N[C@H]1C(O)O[C@H](CO)[C@@H](O)[C@@H]1O (stereo partly shown) [glucosamine], the absorption [6] is given as roughly 90%, the “time until maximum concentration is reached” value [6] is given as 8 h and the degradation [7] is given as “degrades rapidly”. The “solubility in water and in an alcohol medium” value [4] was “highly soluble”, the “efficacy on joint pain and swelling compared with ibuprofen” value ([8]; beginning in the second week of treatment) was “more effective than ibuprofen” and the articular joint space ([8]; in vivo) was “preserves the articular joint space”.
For CC(=O)Oc1cccc2c1C(=O)c1c(OC(C)=O)cc(C(=O)O)cc1C2=O [Diacerein], the articular joint space [9] is given as “significant decrease in the articular joint space”.
